Measurements taken from article PMC10979476, “Molecular Deformation Is a Key Factor in Screening Aggregation Inhibitor for Intrinsically Disordered Protein Tau” (ACS Central Science, 2024).

Columns and labels:
SK-N-SH cells = assay: CCK-8 cell survival assay; assay type: cell-based, human; conditions: 24 h; for cytotoxicity (in words): different concentrations, SK-N-SH cells
Experimental: After the above-mentioned systematic study of SAR at the molecular level, we wondered whether these inhibitory effects can be reproduced in the actual biological system, laying the foundation for the discovery of drug lead compounds. Therefore, the cytotoxicity and inhibitory effects of these synthetic compounds were evaluated by human neuroblastoma SK-N-SH cells. […] The cell viability of SK-N-SH was assessed using a cell counting kit-8 (CCK-8) assay.[48] It could be seen that the cell survival rate was still higher than 70% when the concentration of IPP1 reached 30 μM. […]
11. In Vitro Cellular Uptake and Cell Cytotoxicity.
Cell viability was assessed using Cell Counting Kit-8 (CCK-8) assay following the manufacturer’s instructions. SK-N-SH cells were seeded at a density of 2.0 × 10^4 cells per well in a 96-well plate and incubated for 24 h to adhere in a humidified chamber. Then, the cells were treated with various concentrations of compounds IPP1~IPP4 for 24 h. After that, the culture supernatants were removed, and 90 μL of medium and 10 μL of CCK-8 solution were then added. After further incubation for 3 h at 37 °C, the absorbance was measured at 450 nm using Microplate Reader 581 (SpectraMax iD3). Six replicates were used in each group.
12. In Vitro Evaluation of Inhibitory Effects of Inhibitor on Tau Aggregation In SK-N-SH Cell.
The effect of inhibitors on the formation of aggregate tau in SK-N-SH was tested by using the previously reported method15. First, SK-N-SH was grown on glass coverslips in 12-well plate at a […]

tau hexapeptide VQIVYK = target: T1, tau hexapeptide VQIVYK (Homo sapiens, UniProt P10636); assay: Heparin-induced aggregation of tau hexapeptide VQIVYK, fluorescence assay; assay type: biochemical; conditions: VQIVYK 15 μM, Figure S15
T1 construct: 306VQIVYK311(15 μM), ThS, VQIVYK+heparin
From the text: The carbonyl group in five-membered ring A in IPP1 forms a hydrogen bond with the amino group on glutamine (GLN307), valine (VAL309), and tyrosine (TYR310). The nitrogen atom in pyridine ring C in IPP1 also forms a hydrogen bond with the amino group of isoleucine (ILE308). Pyridine ring C on IPP1 forms π–π stacking with the benzene ring on TYR310. The five-membered ring A in IPP1 also forms hydrophobic contacts with glycine (GLY304), VAL306, and VAL309, which further increases the interaction between the molecule IPP1 and tau. […] Visually, IPP1 is like a molecular clip that firmly holds the key region, preventing the peptide from freely curling/folding and increasing the possibility to inhibit aggregation. […] As a result, the effective interactions between these compounds and tau peptide chains are much less than those of IPP1. […] To verify the docking results, we directly applied IPP1 to the aggregation of tau hexapeptide VQIVYK (Figure S15). […] The positive experimental results of IPP1 inhibition on tau hexapeptide further confirmed the reliability of our theoretical speculation on the target segment. […]
17. The fluorescence spectra of peptide fragments systems in the presence or absence of IPP1
Figure S15. The fluorescence spectra of peptide fragments systems containing […]

SMILES | cytotoxicity (in words) (SK-N-SH cells) | cell survival rate (SK-N-SH cells; 30 μM, tau-infected SK-N-SH cells) | aggregation of tau hexapeptide induced by heparin (tau hexapeptide VQIVYK)
O=C1Nc2ccc(-c3ccc(N4CCCC4)nc3)cc2C1=O [IPP2, 5-(6-(pyrrolidin-1-yl)pyridin-3-yl)indoline-2,3-dione] | lowest cytotoxicity | – | –
O=C1Nc2cccc(-c3ccc(N4CCCC4)nc3)c2C1=O [IPP1, 4-(6-(pyrrolidin-1-yl)pyridin-3-yl)indoline-2,3-dione] | relatively low cytotoxicity | higher than 70% | significantly reduced the aggregation of tau hexapeptide
O=C1Nc2cc(-c3ccc(N4CCCC4)nc3)ccc2C1=O [IPP3, 6-(6-(pyrrolidin-1-yl)pyridin-3-yl)indoline-2,3-dione] | toxicity is not negligible | – | –
